# Data taken from patent US11833256B2, “Selective RARγ ligand-loaded nanoparticles for manipulation of targeted bone growth” (University Of Maryland, Baltimore, priority 2017, dated 2023).
# Columns and labels:
# [1] = system: pSmad1/5/8-positive cells (canonical BMP signaling); test: pSmad1/5/8 immunohistochemistry of ectopic BMP-Matrigel masses; type: in vivo, mouse; details: 4 mg/kg on day 1 and 3; samples day 5
# Procedure: Tissue samples were fixed in 4% paraformaldehyde overnight at 4° C., decalcified in 10% EDTA (for calcified samples only), processed for paraffin embedding, and serially sectioned at 6 μm-thickness. Sections were stained with hematoxylin and eosin (HE) for general profiling or with Alcian blue at pH 1.0 and eosin counter-staining. For immunohistochemical analysis, antigen retrieval was performed with 0.1% pepsin in 0.02 N—HCl for 10 minutes, and sections were incubated with blocking solution (0.1 M NaPB, 1% BSA and 10% normal goat serum) for 1 hour and then with primary antibodies against phospho-Smad1/5/8 (Cell Signaling Technology™, 9511, 1:100) overnight at 4° C. The antibodies were visualized using rabbit specific HRP/DAB (ABC™) detection kit (Abcam™, ab64261). After detection, sections were counter-stained with 0.5% methyl green.
# There are reciprocal antagonistic relationships between the retinoid and BMP signaling pathways in several biological systems. In addition, the suppression of chondrogenesis and heterotopic ossification by RARγ agonists involved inhibition of canonical BMP signaling. Thus, it became important to determine if and how BMP signaling was affected in the various experimental approaches here. […]
# First, the distribution of phosphorylated Smad1/5/8-positive cells was determined within regenerating tibial bone defect areas in wild type and RARγ-null mice (FIG. 6A). […]
# [2] = system: canonical BMP signaling reporter Id1-Luc; test: Id1-luc reporter assay in primary chondrocytes; type: cell-based, mouse
# Procedure: (§1) Primary mouse epiphyseal chondrocytes were isolated from neonatal C57BL/6J mice according to known methods (Yasuhara et al., Lab. Invest. 91(12):1739-1752, 2011) and were plated on 48- or 96-well plates and serum-starved overnight. Cultures were co-transfected with canonical BMP signaling reporter Id1-Luc or retinoic acid response element (RARE)-Luc plasmids and phRG-TK (Promega™) using Lipofectamine LTX™ and Plus™ reagent (Invitrogen™) according to the manufacturer's protocol. Twenty four hours later, cells were treated with rhBMP-2 and/or retinoid and incubated for an additional 24 hours. Cells then were harvested and subjected to dual luciferase assay (Promega™). Firefly luciferase activity was normalized to renilla luciferase activity generated by phRG-TK.
# Enhancement of BMP-Smad signaling by RARγ antagonists was confirmed by Id1-luc reporter assays. Cells were treated with the indicated doses of CD2665 or MM11253 in the absence or presence of 10 ng/mL rhBMP-2.
# [3] = system: ectopic bone formation in RARγ-null mice; test: Ectopic bone formation model in RARγ-null mice; type: in vivo, mouse; details: N=8
# Procedure: To verify specificity of this drug action, similar ectopic bone formation experiments were carried out with RARγ-null mice treated with vehicle or one of the antagonists (CD2665) (FIG. 13E).
# [4] = system: retinoic acid response element (RARE)-Luc; test: RARE-luc reporter assay in primary mouse chondrocytes; type: cell-based; details: 10 nM RA added, 0.3% FBS DMEM
# Procedure: as §1
# Monitoring activity of RARγ antagonists by RARE reporter assay. Cells were treated with indicated doses of CD2665 or MM11253. To detect the effect of RARγ antagonists in retinoid deficient culture condition (0.3% FBS DMEM), 10 nM RA was added to all cultures in experiments reported in FIG. 8A, FIG. 8B and FIG. 8C.
# Primary mouse chondrocytes were isolated and transfected with the RARE-luc reporter gene by reverse transfection according to known methods. Details of the procedure are described in Cong et al., J. Biomater. Sci. Polym. Ed. 26(11):629-643, 2015. […]
# [5] = Hydrophobicity of acetaminophen-capped prodrug derivative versus parent; type: physicochemical; details: acetaminophen-capped derivative vs parent retinoid
# From the text: In order to produce an in situ activatable, reversibly hydrophobized prodrug derivatives of a RARγ agonist, a pro-drug can be delivered in a nanoparticle formulation. […] However, the ionizable carboxylic group promotes the partitioning of the compound from the particle to the surrounding aqueous medium. […] The compound would be activatable upon release can increase the stability of the particle-cargo association and help achieve a more lasting and highly localized therapeutic effect. Such constructs are in essence mutual prodrugs or co-drugs, as they regenerate in one step the retinoid compound and acetaminophen, a biologically active “helper” agent, which can play an important supporting role in therapy.
SMILES,pSmad1/5/8-positive cells in ectopic BMP-Matrigel masses [1],Id1-luc reporter activity ([2]; absence of exogenous rhBMP-2),Id1-luc reporter activity ([2]; presence of 10 ng/mL rhBMP-2),"ectopic bone formation in RARγ-null mice, drug vs vehicle [3]",RARE-luc reporter activity (antagonists) [4],more hydrophobic derivative if modified with acetaminophen [5] [fold]
COCCOCOc1cc2ccc(-c3ccc(C(=O)O)cc3)cc2cc1C12CC3CC(CC(C3)C1)C2 [CD2665],more numerous and obvious,slightly increased,significantly enhanced,No significant differences in bone formation,inhibited RARE-luc reporter activity,–
CC1(C)CCC(C)(C)c2cc(C3(c4ccc5cc(C(=O)O)ccc5c4)SCCS3)ccc21 [MM11253],–,slightly increased,significantly enhanced,–,inhibited RARE-luc reporter activity,5
